Consider nine compounds from ChEMBL document CHEMBL4270673, “Receptor-Ligand Interaction Measured by Inductively Coupled Plasma Mass Spectrometry and Selenium Labeling” (J Med Chem, 2018).

Where a SMILES comes first, the peptide text is derived from it. [ ]: non-standard residue; d: D form. The star is where a group is joined. SeMet = C[Se]CC[C@H](N)C(=O)O; X1 = O=C(C[Se]c1ccccc1)*; Ahx = NCCCCCC(=O)O

Test [1] deals with T1, Vasopressin V1a receptor (Homo sapiens, UniProt P37288). Nature of the test: Binding affinity to human V1A receptor expressed in CHO cells assessed per million cells after 4 hrs by RP-LC-ICPMS analysis. The format is cell-based.
Target sequence in this assay (P37288 whole entry, looked up): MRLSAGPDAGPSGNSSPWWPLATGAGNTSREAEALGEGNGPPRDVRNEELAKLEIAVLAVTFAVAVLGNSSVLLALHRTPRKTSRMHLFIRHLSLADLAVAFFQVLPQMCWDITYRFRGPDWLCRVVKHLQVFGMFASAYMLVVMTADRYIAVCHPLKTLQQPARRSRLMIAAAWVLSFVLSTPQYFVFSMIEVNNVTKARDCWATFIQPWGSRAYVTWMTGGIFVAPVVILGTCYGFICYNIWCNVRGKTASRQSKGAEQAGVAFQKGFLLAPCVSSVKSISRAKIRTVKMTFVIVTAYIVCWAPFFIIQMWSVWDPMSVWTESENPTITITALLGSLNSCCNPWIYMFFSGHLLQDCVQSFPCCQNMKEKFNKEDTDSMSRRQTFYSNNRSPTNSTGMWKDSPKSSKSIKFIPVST
The target in test [2] is T2, Gastrin/cholecystokinin type B receptor (Homo sapiens, UniProt P32239).
T2 sequence (P32239 whole entry): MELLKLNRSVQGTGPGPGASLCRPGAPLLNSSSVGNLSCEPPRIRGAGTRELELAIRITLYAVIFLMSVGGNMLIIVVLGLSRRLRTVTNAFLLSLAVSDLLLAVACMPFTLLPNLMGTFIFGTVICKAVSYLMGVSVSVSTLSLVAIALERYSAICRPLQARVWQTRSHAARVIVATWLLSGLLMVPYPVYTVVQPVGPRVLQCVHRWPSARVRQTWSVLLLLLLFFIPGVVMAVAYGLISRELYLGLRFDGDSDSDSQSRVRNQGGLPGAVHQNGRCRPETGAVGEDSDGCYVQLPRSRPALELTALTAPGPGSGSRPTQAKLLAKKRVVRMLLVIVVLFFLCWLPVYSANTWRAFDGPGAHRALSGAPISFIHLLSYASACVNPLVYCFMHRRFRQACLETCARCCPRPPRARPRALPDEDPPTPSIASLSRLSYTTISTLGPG
Briefly: Displacement of non-sulfated CCK-8 from CCKB receptor (unknown origin) expressed in HEK cells after 4 hrs by RP-LC-ICPMS analysis. In kind it is cell-based.

Test [3] concerns the target T2, Gastrin/cholecystokinin type B receptor. Briefly: Binding affinity to CCKB receptor (unknown origin) expressed in HEK cells after 4 hrs by RP-LC-ICPMS analysis. The format is cell-based.
Test [4] has as its target T1, Vasopressin V1a receptor. Briefly: Displacement of [125I]OH-Phpa-LVA from human V1A receptor expressed in CHO cells after 4 hrs by gamma counter analysis. The format is cell-based. For orientation: In a radioligand displacement assay an active substance lowers the binding of a labelled ligand.
Target sequence in this assay (P37288 whole entry): as the sequence (P37288 whole entry, looked up) above
Test [5] has as its target T1, Vasopressin V1a receptor. Briefly: Displacement of [Se-Se]-AVP from human V1A receptor expressed in CHO cells after 4 hrs by RP-LC-ICPMS analysis. The format is cell-based.
Target sequence in this assay (P37288 whole entry): as the sequence (P37288 whole entry, looked up) above
Test [6] has as its target T1, Vasopressin V1a receptor. Briefly: Displacement of [Ph-Se-acetyl]-LVA from human V1A receptor expressed in CHO cells after 4 hrs by RP-LC-ICPMS analysis. The format is cell-based.
Target sequence in this assay (P37288 whole entry): as the sequence (P37288 whole entry, looked up) above
Test [7] addresses T1, Vasopressin V1a receptor. Nature of the test: Binding affinity to human V1A receptor expressed in CHO cells after 4 hrs by RP-LC-ICPMS analysis. In kind it is cell-based.
Target sequence in this assay (P37288 whole entry): as the sequence (P37288 whole entry, looked up) above
The target of test [8] is T1, Vasopressin V1a receptor. Nature of the test: Displacement of [Sez6]-HO-Phpa-LVA from human V1A receptor expressed in CHO cells after 4 hrs by RP-LC-ICPMS analysis. The format is cell-based.
Target sequence in this assay (P37288 whole entry): as the sequence (P37288 whole entry, looked up) above
Test [9] has as its target T1, Vasopressin V1a receptor. Nature of the test: Binding affinity to human V1A receptor expressed in CHO cell membranes.
Target sequence in this assay (P37288 whole entry): as the sequence (P37288 whole entry, looked up) above

`N=C(N)NCCC[C@@H](NC(=O)[C@@H]1CCCN1C(=O)[C@@H]1C[Se][Se]C[C@H](N)C(=O)N[C@@H](Cc2ccc(O)cc2)C(=O)N[C@@H](Cc2ccccc2)C(=O)N[C@@H](CCC(N)=O)C(=O)N[C@@H](CC(N)=O)C(=O)N1)C(=O)NCC(N)=O` gave a Bmax at Vasopressin V1a receptor [1] of 1060 fmol.
Broadly, the Ki is the equilibrium dissociation constant of an inhibitor or competing ligand from its target. A high value points to lower affinity. As usually defined, the Kd is the free concentration of one partner at which half of the binding sites on the other are occupied at equilibrium, for simple one-to-one binding. In turn, `CSCC[C@H](NC(=O)[C@H](Cc1c[nH]c2ccccc12)NC(=O)CCCCCNC(=O)[C@H](CCCNC(=N)N)NC(=O)C[Se]c1ccccc1)C(=O)N[C@@H](CC(=O)O)C(=O)N[C@@H](Cc1ccccc1)C(N)=O` (X1-R[Ahx]WMDF-NH2) returned an inhibition constant Ki in [2] of 7.93 nM. Also, in test [3], binding was put at a Kd of 29.3 nM.
For the compound `CCOc1ccc2c(c1)[C@]1(CC[C@H](OCCN3CCOCC3)CC1)C(=O)N2S(=O)(=O)c1ccc(C(=O)NC(C)(C)C)cc1OC`, the Ki at Vasopressin V1a receptor [4] amounted to 304 nM; on Vasopressin V1a receptor [5], 2950 nM.
On to `COc1ccc(C[C@@H](NC(=O)C[Se]c2ccc(O)cc2)C(=O)N[C@@H](Cc2ccccc2)C(=O)N[C@@H](CCC(N)=O)C(=O)N[C@@H](CC(N)=O)C(=O)N[C@@H](CCCNC(=N)N)C(=O)N2CCC[C@H]2C(=O)N[C@@H](CCCNC(=N)N)C(N)=O)cc1`, for which the inhibitory constant (Ki) stood at 0.9 nM at Vasopressin V1a receptor [4] and 12.9 nM at Vasopressin V1a receptor [6]. Further, the Bmax on Vasopressin V1a receptor [1] amounted to 696 fmol. This compound also gave an equilibrium dissociation constant (Kd) at Vasopressin V1a receptor [7] of 0.32 nM.
As to `CSCC[C@H](NC(=O)[C@H](Cc1c[nH]c2ccccc12)NC(=O)CCCCCNC(=O)[C@H](CCCNC(=N)N)NC(=O)[C@H](CC[Se]C)NC(C)=O)C(=O)N[C@@H](CC(=O)O)C(=O)N[C@@H](Cc1ccccc1)C(N)=O` (Ac-[SeMet]R[Ahx]WMDF-NH2), the affinity in test [2], expressed as Ki, was 3.91 nM. The same compound displayed a Kd in [3] of 45.5 nM.
`COc1ccc(C[C@@H](NC(=O)CCc2ccc(O)cc2)C(=O)N[C@@H](Cc2ccccc2)C(=O)N[C@@H](CCC(N)=O)C(=O)N[C@@H](CC(N)=O)C(=O)N[C@@H](CCCNC(=N)N)C(=O)N2CCC[C@H]2C(=O)N[C@@H](CCCNC(=N)N)C(N)=O)cc1`: the results for the inhibition constant (Ki) at Vasopressin V1a receptor [4] and at Vasopressin V1a receptor [5] were 0.8 nM and 0.2 nM, respectively.
With `COc1ccc(C[C@@H](NC(=O)CCc2ccc(O)cc2)C(=O)N[C@@H](Cc2ccccc2)C(=O)N[C@@H](CCC(N)=O)C(=O)N[C@@H](CC(N)=O)C(=O)N[C@@H](CCCNC(=N)N)C(=O)N2C[Se]C[C@H]2C(=O)N[C@@H](CCCNC(=N)N)C(N)=O)cc1`, the Ki at Vasopressin V1a receptor [4] stood at 0.9 nM; on Vasopressin V1a receptor [5], 0.4 nM; on Vasopressin V1a receptor [8], 3.8 nM. The compound also yielded a Bmax on Vasopressin V1a receptor [1] of 845 fmol. In addition, the Kd at Vasopressin V1a receptor [7] came out at 0.45 nM.
Compound `N=C(N)NCCC[C@H](NC(=O)[C@@H]1CCCN1C(=O)[C@@H]1C[Se]C[C@H](N)C(=O)N[C@@H](Cc2ccc(O)cc2)C(=O)N[C@@H](Cc2ccccc2)C(=O)N[C@@H](CCC(N)=O)C(=O)N[C@@H](CC(N)=O)C(=O)N1)C(=O)NCC(N)=O` yielded a Ki on Vasopressin V1a receptor [4] of 1280 nM.
For `N=C(N)NCCC[C@H](NC(=O)[C@@H]1CCCN1C(=O)[C@@H]1C[Se][Se]C[C@H](N)C(=O)N[C@@H](Cc2ccc(O)cc2)C(=O)N[C@@H](Cc2ccccc2)C(=O)N[C@@H](CCC(N)=O)C(=O)N[C@@H](CC(N)=O)C(=O)N1)C(=O)NCC(N)=O`, the Ki amounted to 0.7 nM on Vasopressin V1a receptor [4] and 1.7 nM on Vasopressin V1a receptor [5]. The compound also registered a Kd at Vasopressin V1a receptor [9] of 0.6 to 3 nM.
